From patent publication US10576076B2 (priority 2015, dated 2020)

Assays:
[1] = system: influenza vaccine strains; assay: Clinical study in elderly volunteers: response to influenza vaccination after 6 weeks of mTOR inhibitor dosing; assay type: in vivo, human; conditions: 4 weeks after vaccination, 2 week drug-free break
Method: In a clinical study elderly volunteers were treated for 6 weeks daily with one of four mTOR inhibitor dosing regimens: 0.5 mg/day RAD001, 0.1 mg/day RAD001, 10 mg/day BEZ235 or 0.1 mg/day RAD001+10 mg/day BEZ235.
After being dosed for 6 weeks, the elderly volunteers were given a 2 week drug-free break and then received influenza vaccination. […] All dosing regimens were relatively well tolerated. […] However the majority of these adverse events were of mild severity, transient and resolved despite continued dosing of mTOR inhibitors.

mTOR = mTOR (Homo sapiens, UniProt P42345); conditions: low concentration; cited from earlier work
PI3K/mTOR = conditions: relatively higher concentrations; cited from earlier work

Compound	vaccine strains with GMT ratio as compared to placebo >1.2 ([1]; BEZ235 10 mg/day monotherapy for 6 weeks)	concentration at which mTOR inhibition predominates (mTOR)	concentration at which dual PI3K/mTOR inhibition occurs (PI3K/mTOR)	vaccine strains with GMT ratio as compared to placebo >1.2 ([1]; RAD001 0.1 mg/day monotherapy for 6 weeks)	vaccine strains with GMT ratio as compared to placebo >1.2 ([1]; RAD001 0.5 mg/day monotherapy for 6 weeks)
Cn1c(=O)n(-c2ccc(C(C)(C)C#N)cc2)c2c3cc(-c4cnc5ccccc5c4)ccc3ncc21 [BEZ235, 2-methyl-2-[4-(3-methyl-2-oxo-8-quinolin-3-yl-2,3-dihydro-imidazo[4,5-c]quinolin-1-yl)-phenyl]-propionitrile]	0/3	less than 100 nmol/L	approximately 500 nmol/L		
CO[C@H]1C[C@@H]2CC[C@@H](C)[C@@](O)(O2)C(=O)C(=O)N2CCCC[C@H]2C(=O)O[C@H]([C@H](C)C[C@@H]2CC[C@@H](OCCO)[C@H](OC)C2)CC(=O)[C@H](C)/C=C(\C)[C@@H](O)[C@@H](OC)C(=O)[C@H](C)C[C@H](C)/C=C/C=C/C=C/1C [RAD001, (1R,9S,12S,15R,16E,18R,19R,21R,23S,24E,26E,28E,30S,32S,35R)-1,18-dihydroxy-12-{(1R)-2-[(1S,3R,4R)-4-(2-hydroxyethoxy)-3-methoxycyclohexyl]-1-methylethyl}-19,30-dimethoxy-15,17,21,23,29,35-hexamethyl-11,36-dioxa-4-aza-tricyclo[30.3.1.04,9]hexatriaconta-16,24,26,28-tetraene-2,3,10,14,20-pentaone]				⅓	⅓
